Measured values from the NIST ThermoML archive (doi:10.1016/j.jct.2006.07.006).
Where “and” joins values, the source holds several entries; their conditions need not be identical. Equal entries are not always repeated. ± gives the expanded uncertainty stated by the source.

Assay: activity coefficient (dimensionless); of the first substance listed, at infinite dilution; xn = mol fraction of the nth substance listed
Settings: 101 kPa, Liquid, x1 = 0

CO [methanol] + CCCCCC[n+]1ccn(C)c1.O=S(=O)([N-]S(=O)(=O)C(F)(F)F)C(F)(F)F
activity coefficient (301.8 K): 1.46 [middle of 4 runs]
activity coefficient (312.4 K): 1.29 [middle of 5 runs]
activity coefficient (322.9 K): 1.15 and 1.25 and 1.22
activity coefficient (333.2 K): 1.1 [middle of 4 runs]
activity coefficient (344 K): 1 [middle of 4 runs]
activity coefficient (354.3 K): 0.87 and 0.93 and 0.9

CCCCO [butan-1-ol] + CCCCCC[n+]1ccn(C)c1.O=S(=O)([N-]S(=O)(=O)C(F)(F)F)C(F)(F)F
activity coefficient (323.1 K): 1.99 and 1.98 and 2.06
activity coefficient (333.5 K): 1.83 [middle of 4 runs]
activity coefficient (344 K): 1.61 [middle of 5 runs]
activity coefficient (354.5 K): 1.46 [middle of 5 runs]
activity coefficient (364.9 K): 1.34 [middle of 4 runs]
activity coefficient (375.4 K): 1.23 and 1.28
activity coefficient (386.1 K): 1.14 ± 0.12

CCCCCCO [hexan-1-ol] + CCCCCC[n+]1ccn(C)c1.O=S(=O)([N-]S(=O)(=O)C(F)(F)F)C(F)(F)F
activity coefficient (333.4 K): 2.57 ± 0.47
activity coefficient (343.9 K): 2.32 and 2.25 and 2.37
activity coefficient (354.4 K): 2.14 [middle of 7 runs]
activity coefficient (364.8 K): 1.95 [middle of 5 runs]
activity coefficient (375.2 K): 1.8 [middle of 5 runs]
activity coefficient (386 K): 1.67 and 1.69 and 1.7
activity coefficient (396 K): 1.56 ± 0.25
